Consider one molecule from patent US20210236449A1, “USE OF CHLOROGENIC ACID IN PREPARING DRUG FOR PREVENTING OR BLOCKING BRAIN AND/OR BONE METASTASES OF LUNG CANCER” (SICHUAN JIUZHANG BIOLOGICAL SCIENCE AND TECHNOLOGY CO., LTD, priority 2018, published 2021).

This test concerns EGFP-LA795 cells. As to the kind of experiment: Inhibitory effect of chlorogenic acid on metastasis in LA795 lung cancer mice. The format is in vivo, T739 mice. The settings on record: for Abdominal metastasis / Axial bone metastasis / Bloody ascites / Brain metastasis / Limb bone metastasis / Local lymph node metastasis: once a day for 20 days, mice with finding/n = 10. From the text: (1) Animals: T739 mice, half male and half female, weighing 18-22 g, are provided by the Experimental Animal Center of Sichuan University.
(2) Lung cancer cell lines: LA795, provided by Wuhan Procell Life Technology Co., Ltd.; Fetal bovine serum, provided by Hangzhou Sijiqing Bioengineering Materials Co., Ltd.; plasmid EGFP-C1, provided by Clontech; Liposome transfection reagent Lipofectamin 2000, provided by Invitrogen.
LA795 cells were inoculated in a 6-well culture plate at 1×10^7 cells/mL, using DMEM complete medium containing 10% fetal bovine serum, and cultured in a 37° C., 5% CO2 incubator. When the cells were about 70% fused, liposome transfection reagent lipid Lipofectamin2000 was used and LA795 cells were transfected into plasmid EGFP-C1. 48 h after transfection, cells were passed and screened by G 418, then anti-G418 fluorescent positive clones appeared after about 4 weeks. Clones were observed under fluorescent inverted microscope, and one resistant fluorescent cell clone was randomly picked and transferred to 96-well plate for culture. After stepwise expansion, cells were routinely cultured and passaged. 400 μg/ml G418 was used to maintain screening and obtain expanded EGFP-LA795 cells. When EGFP-LA795 cells are 80%-90% fused in the logarithmic growth phase, they are digested with 0.25% trypsin, then centrifuged, and the cells are resuspended in DMEM to prepare a cell suspension for seeding (cell concentration 1×10^7 cells/mL). EGFP-LA795 cells grown on the wall were trypsinized to prepare a single cell suspension, and then diluted appropriately. The cell suspension was mixed with 0.4% trypan blue solution and counted under the microscope. The survival rate of EGFP-LA795 cells was >90%, and the positive clones were picked out under an inverted fluorescence microscope, followed by culture and amplification, to obtain LA795 cells with green fluorescence.
0.2 ml of EGFP-LA795 cell suspension at 1.0×10^7 cells/ml was inoculated into the armpit of mice, and then the mice were randomly divided into groups, 10 mice for each group, including the high-dose chlorogenic acid group, the middle-dose chlorogenic acid group, and the low-dose chlorogenic acid group and the model control group. Chlorogenic acid was administered by intraperitoneal injection, 40 mg/kg for the high-dose group, 20 mg/kg for the middle-dose group, 10 mg/kg for the low-dose group, and the administration volume was 1.0 ml; the model control group was given the same volume of normal saline by intraperitoneal injection, once a day for 20 days. In vivo imaging observations were performed on days 0, 10, and 20, respectively. After the test, the mice were sacrificed by cervical dislocation, and peripheral lymph nodes, axial bones, and long bones of the limbs were taken to observe and count metastases.
10% chloral hydrate was intraperitoneally injected at 4 ml/kg for anesthetization, and mice were put on the black rubber pad prepared for the in vivo imager. The irradiation conditions were GFP, the emission wavelength was 520 nm, the excitation wavelength was 480 nm, and the exposure time was 5 ms. The volume changes and metastasis of the tumor were observed.
Surrounding lymph nodes were taken out, and 8 μm conventional and frozen sections were obtained, and routinely stained with hematoxylin-eosin (HE) every other one, to observe the tumor metastasis under fluorescence microscope and light microscope.
Axial bones (such as ribs, spine, ilium, scapula) and long bones of the limbs of mice were chosen, cut into 0.5 cm×0.3 cm×0.3 cm bone pieces, and fixed with frozen 4% paraformaldehyde solution at 5° C. for 12 h-24 h; the bones were rinsed with phosphate buffer and decalcified with EDTA until the bone slices were completely decalcified. […]

The mark [1] stands for this setting: high dose group, 40 mg/kg intraperitoneal injection.
Where [2] appears, read: low dose group, 10 mg/kg intraperitoneal injection.
Setting [3] is: medium dose group, 20 mg/kg intraperitoneal injection.

Marks after values point to notes of the source that are not given here.

On to `O=C(/C=C/c1ccc(O)c(O)c1)O[C@@H]1C[C@](O)(C(=O)O)C[C@@H](O)[C@H]1O` [Chlorogenic acid, chlorogenic acid], for which the “metastasis of LA795 lung cancer cells in mice” value (20 mg/kg medium-dose group) was “No metastasis was found”. Further, under setting [1], the Abdominal metastasis is reported as 1/10*, the Axial bone metastasis was 0/10*, the Bloody ascites is 0/10* and the Brain metastasis is reported as 0/10*. Further, under setting [1], the Limb bone metastasis was 0/10* and the “Local lymph node metastasis” value was 1/10*. Further, under setting [2], the Abdominal metastasis was 2/10*, the Axial bone metastasis is 0/10*, the Bloody ascites is recorded as 0/10* and the Brain metastasis was 0/10*. In addition, under setting [2], the Limb bone metastasis was 0/10* and the “Local lymph node metastasis” value was 1/10*. Also, under “low, medium and high dose groups versus model control group”, the “number of metastatic foci in mice” value is listed as “significantly reduced”. In addition, under setting [3], the Abdominal metastasis is recorded as 0/10*, the Axial bone metastasis was 0/10*, the Bloody ascites is 0/10* and the Brain metastasis is given as 0/10*. Moreover, under setting [3], the Limb bone metastasis is reported as 0/10* and the “Local lymph node metastasis” value was 0/10*.
